Where only a bound is given, the exact number is not on record here.

The first assay concerns Mus musculus. In words: Analgesic activity in mouse assessed as inhibition of acetic acid-induced writhing responses at 31 umol/kg, ip between 5 to 10 mins. It counts as functional. On the set-up: scale not given: the % may be the effect or the level left.
For `C[N+]1(C)CCN(c2cccc([N+](=O)[O-])c2)CC1.[Br-]`, the Activity is recorded as 22%.

In the case of `C[N+]1(C)CCN(c2cccc([N+](=O)[O-])c2)CC1.[I-]`, the Activity is on record as -16%.

For the compound `[Br-].c1ccc(N2CC[N+]3(CCCC3)CC2)cc1`, the Activity is 20%.

As for `CC1C[N+]2(CCN(Cc3ccccc3)CC2)CC(C)O1.[Cl-]` (stereo not given), the Activity was 21%.

On to `[Cl-].c1ccc(CCN2CC[N+]3(CCCCC3)CC2)cc1`, for which the Activity worked out at 5%.

As to `COc1ccc(CCN2CC[N+]3(CC2)CC(C)OC(C)C3)cc1.[Cl-]` (stereo not given), the Activity is recorded as -47%.

For the compound `O=[N+]([O-])c1cccc(N2CC[N+]3(CCCC3)CC2)c1.[Br-]`, the Activity was determined as 61%.

Consider `CC1C[N+]2(CCN(C/C=C/c3ccccc3)CC2)CC(C)O1.[Cl-]` (stereo not given), for which the Activity is -43%.

Consider `C[N+]1(C)CCN(CCc2ccccc2)CC1.[Cl-]`, for which the Activity turned out to be 18%.

On to `COc1ccc(N2CC[N+]3(CCCC3)CC2)cc1.[Br-]`, for which the Activity is listed as 56%.

Take `O=[N+]([O-])c1ccc(N2CC[N+]3(CCCC3)CC2)cc1.[Br-]`: the Activity is reported as 16%.

As to `C=CCN1CC[N+]2(CC1)CC(C)OC(C)C2.[Cl-]` (stereo not given), the Activity was 49%.

On to `[Cl-].c1ccc(CCN2CC[N+]3(CCCC3)CC2)cc1`, for which the Activity is listed as -36%.

For the compound `CC1C[N+]2(CCN(CCc3ccccc3)CC2)CC(C)O1.[Cl-]` (stereo not given), the Activity turned out to be 65%.

Consider `[Cl-].c1ccc(CCN2CC[N+]3(CCCCCC3)CC2)cc1`, for which the Activity is given as 4%.

On to `CC1C[N+]2(CCN(CCc3ccccn3)CC2)CC(C)O1.[Cl-]` (stereo not given), for which the Activity is -2%.

As for `CC1C[N+]2(CCN(CCc3ccc([N+](=O)[O-])cc3)CC2)CC(C)O1.[Cl-]` (stereo not given), the Activity is on record as -24%.

`CC1C[N+]2(CCN(CCCc3ccccc3)CC2)CC(C)O1.[Cl-]` (stereo not given): the Activity is given as -19%.

The next assay deals with Neuronal acetylcholine receptor; alpha4/beta2 (Homo sapiens, UniProt P17787+P43681). In words: Inhibition of alpha-4-beta-2 nAChR. It counts as protein-complex assay.
Neuronal acetylcholine receptor; alpha4/beta2, sequence (P17787 whole entry): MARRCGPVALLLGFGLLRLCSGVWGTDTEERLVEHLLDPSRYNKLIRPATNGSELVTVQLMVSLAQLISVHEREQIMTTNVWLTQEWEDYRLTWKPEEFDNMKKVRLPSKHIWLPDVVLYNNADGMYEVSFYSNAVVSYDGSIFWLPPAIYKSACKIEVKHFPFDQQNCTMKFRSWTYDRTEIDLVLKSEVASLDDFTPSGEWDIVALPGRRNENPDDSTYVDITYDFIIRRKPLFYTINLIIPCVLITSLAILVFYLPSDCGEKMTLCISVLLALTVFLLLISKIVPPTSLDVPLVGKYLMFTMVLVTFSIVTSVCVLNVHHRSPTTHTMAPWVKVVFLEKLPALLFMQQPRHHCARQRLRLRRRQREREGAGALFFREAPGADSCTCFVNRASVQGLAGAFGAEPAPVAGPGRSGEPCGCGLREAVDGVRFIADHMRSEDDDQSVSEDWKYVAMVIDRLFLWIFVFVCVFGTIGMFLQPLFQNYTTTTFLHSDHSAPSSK
Neuronal acetylcholine receptor; alpha4/beta2, sequence (P43681 whole entry): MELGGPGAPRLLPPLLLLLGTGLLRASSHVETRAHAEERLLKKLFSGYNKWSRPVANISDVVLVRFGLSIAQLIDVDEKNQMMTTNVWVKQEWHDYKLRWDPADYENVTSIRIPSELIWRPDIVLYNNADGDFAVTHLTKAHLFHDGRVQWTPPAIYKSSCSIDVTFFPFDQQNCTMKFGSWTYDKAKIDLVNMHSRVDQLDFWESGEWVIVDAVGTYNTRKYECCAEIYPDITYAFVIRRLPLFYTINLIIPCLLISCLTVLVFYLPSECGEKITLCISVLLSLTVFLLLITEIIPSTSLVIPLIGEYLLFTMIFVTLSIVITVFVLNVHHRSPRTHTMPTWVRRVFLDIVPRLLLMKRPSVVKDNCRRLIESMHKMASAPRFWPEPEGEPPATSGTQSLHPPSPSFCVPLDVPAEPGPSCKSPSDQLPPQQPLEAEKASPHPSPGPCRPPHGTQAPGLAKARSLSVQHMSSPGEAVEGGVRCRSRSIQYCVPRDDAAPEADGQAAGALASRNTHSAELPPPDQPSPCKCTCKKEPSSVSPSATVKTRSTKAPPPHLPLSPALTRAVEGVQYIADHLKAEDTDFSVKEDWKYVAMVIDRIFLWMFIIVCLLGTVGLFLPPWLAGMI
The compound `CC1C[N+]2(CCN(CCc3ccccc3)CC2)CC(C)O1.[Cl-]` (stereo not given) had an IC50 above 10 µM.

The next assay deals with Mus musculus. In words: […] in ip dosed nociception mouse model. It counts as functional.
`CC1C[N+]2(CCN(CCc3ccccc3)CC2)CC(C)O1.[Cl-]` (stereo not given) showed an LD50 of 1550 µmol/kg.

By IC50 is commonly meant the concentration that gives 50% inhibition. As a reminder, the LD50 is the dose at which mortality reaches 50%.
